The results in this text go back to US11840686B2, “Modulation of prekallikrein (PKK) expression” (Ionis Pharmaceuticals, Inc., priority 2013, dated 2023).

Strand notation (5' to 3'): a small letter for the sugar, then the base; units joined by * are phosphorothioate-linked, units joined directly phosphodiester-linked; [ ] holds rarer units or linkages, { } end groups; capitals alone tell only the bases. e = 2'-O-(2-methoxyethyl) (MOE); k = constrained ethyl (cEt); [5mC] = 5-methylcytosine; d = 2'-deoxy (DNA)

In the first series the test system is human PKK mRNA. The series is described as follows: Antisense inhibition of human PKK mRNA in HepaRG cells, 1,000 nM, MOE/deoxy/cEt oligonucleotides (Example 3). Format: cell-based. The following applies: Table 27; HepaRG cells, 1,000 nM antisense oligonucleotide; human PKK mRNA. The essentials:
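Readout is percent PKK mRNA reduction against untreated controls, by real-time PCR (RTS3454) adjusted for total RNA via RIBOGREEN. Oligonucleotides, phosphorothioate gapmers of 16 nucleosides with cEt, MOE and deoxy sugars, were delivered at 1,000 nM by electroporation to 20,000 HepaRG cells/well for roughly 24 h.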
In general, % inhibition refers to the percentage by which the read-out fell short of the control. Higher therefore signals strong suppression. For the substance “548349 (antisense eT*e[5mC]*k[5mC]*dA*dG*dA*dA*dT*dA*d[5mC]*dT*dG*d[5mC]*k[5mC]*k[5mC]*e[5mC]) [compound 548349]”, the “% inhibition” value came out at 61%. Still for that read-out and setting: the same measure for “548350 (antisense eG*e[5mC]*kG*d[5mC]*dT*dA*dA*d[5mC]*d[5mC]*dT*d[5mC]*dA*dT*kA*kA*eA) [compound 548350]”: 29%; for “548351 (antisense e[5mC]*eT*kG*dG*dA*dA*dA*d[5mC]*dG*dA*dG*dA*d[5mC]*kA*k[5mC]*eA) [compound 548351]”: 33%.

Consider “548352 (antisense eG*eA*kG*dA*dG*dA*dG*dA*dT*dG*dT*dT*d[5mC]*k[5mC]*k[5mC]*eT) [compound 548352]”, for which the “% inhibition” value amounted to 47%. Same read-out and setting: the same measure for “548353 (antisense e[5mC]*eT*kG*d[5mC]*dT*dG*dG*dT*dT*dG*dA*dG*dA*kA*kT*e[5mC]) [compound 548353]”: 48%. With “548354 (antisense eA*eT*kG*dT*d[5mC]*d[5mC]*d[5mC]*d[5mC]*dA*dG*dT*dG*dG*kA*kA*eG) [compound 548354]”, the “% inhibition” value amounted to 41%. The same measure, in the same setting: the same measure for “548355 (antisense eG*e[5mC]*kA*dT*d[5mC]*d[5mC]*dT*d[5mC]*d[5mC]*d[5mC]*dT*dA*dG*kT*kT*eG) [compound 548355]”: 47%; for “548356 (antisense eT*eG*kT*dT*dG*dG*dT*d[5mC]*dA*dG*d[5mC]*dA*dT*kT*k[5mC]*eA) [compound 548356]”: 63%. With “548357 (antisense eG*eA*k[5mC]*dG*dA*d[5mC]*dT*dG*d[5mC]*d[5mC]*d[5mC]*dT*dG*kT*kG*e[5mC]) [compound 548357]”, the “% inhibition” value was 69%.

As for “548358 (antisense eA*eT*kT*dT*dG*dG*dG*d[5mC]*d[5mC]*dT*dA*dG*dT*kG*kG*eT) [compound 548358]”, the “% inhibition” value turned out to be 0%. Same read-out and setting: the same measure for “548359 (antisense e[5mC]*e[5mC]*kT*dA*dG*dT*d[5mC]*d[5mC]*dT*d[5mC]*dA*dA*dG*kT*kT*eT) [compound 548359]”: 0%.

For the substance “548360 (antisense e[5mC]*eA*kA*dG*dA*d[5mC]*dA*dT*d[5mC]*dA*dG*dT*dA*kG*k[5mC]*eT) [compound 548360]”, the “% inhibition” value worked out at 45%. On the same count and under the same terms, as for “548361 (antisense e[5mC]*eT*kT*dA*dT*d[5mC]*dA*dG*dT*d[5mC]*d[5mC]*d[5mC]*dA*kG*kT*e[5mC]) [compound 548361]”, the figure is 52%; as for “548362 (antisense eG*eA*k[5mC]*dA*dA*d[5mC]*d[5mC]*d[5mC]*dA*dT*d[5mC]*dA*dG*kT*kT*eG) [compound 548362]”, 33%. On the same count and under the same terms, the same measure for “548363 (antisense e[5mC]*eA*kG*d[5mC]*dA*dG*dG*d[5mC]*dT*d[5mC]*dA*dA*dA*kG*kT*eG) [compound 548363]”: 37%; for “548364 (antisense eT*eG*kG*d[5mC]*dT*dA*dA*dG*dT*d[5mC]*dA*dG*dG*k[5mC]*k[5mC]*e[5mC]) [compound 548364]”: 30%.

Regarding “548365 (antisense eT*eG*kT*dA*d[5mC]*dT*d[5mC]*d[5mC]*dA*d[5mC]*d[5mC]*dT*d[5mC]*kA*k[5mC]*eG) [compound 548365]”, the “% inhibition” value is given as 55%. On the same count and under the same terms, as for “548366 (antisense eA*eG*k[5mC]*dA*dA*dG*d[5mC]*dT*dA*dA*dG*dT*dG*kA*kG*eT) [compound 548366]”, the figure is 5%; as for “548367 (antisense eG*eT*kT*d[5mC]*dT*dT*dG*dA*dG*dT*dG*dT*dA*kG*kA*eG) [compound 548367]”, 52%; as for “548368 (eG*eT*kG*dT*dT*d[5mC]*dA*dT*dA*d[5mC]*dG*dG*dA*kA*kG*e[5mC]; antisense) [compound 548368]”, 59%. Same read-out and setting: the same measure for “548369 (eG*eT*kT*dG*dG*dG*dA*dT*dG*d[5mC]*dG*dA*d[5mC]*kT*k[5mC]*eT; antisense) [compound 548369]”: 50%; for “548370 (eA*e[5mC]*kG*dA*dA*dG*dT*d[5mC]*dT*d[5mC]*dT*dT*dT*k[5mC]*k[5mC]*eT; antisense) [compound 548370]”: 53%.

Turning to “548371 (e[5mC]*eG*kA*dT*dG*dA*dG*dT*dT*dG*dG*dG*d[5mC]*kA*kG*eG; antisense) [compound 548371]”, the “% inhibition” value worked out at 57%.

For the substance “548372 (eG*eA*kT*dA*d[5mC]*d[5mC]*dT*dT*dT*d[5mC]*d[5mC]*dA*d[5mC]*kT*k[5mC]*e[5mC]; antisense) [compound 548372]”, the “% inhibition” value is 61%. With “548373 (eT*e[5mC]*k[5mC]*d[5mC]*d[5mC]*dA*dA*dG*dA*dT*dT*dA*dT*kG*kT*eG; antisense) [compound 548373]”, the “% inhibition” value was determined as 16%. The same measure, in the same setting: the same measure for “548374 (eG*e[5mC]*kA*d[5mC]*d[5mC]*d[5mC]*dT*dT*dT*dT*d[5mC]*dA*dT*kT*kG*eA; antisense) [compound 548374]”: 41%; for “548375 (eT*e[5mC]*kG*dA*d[5mC]*dT*dT*d[5mC]*dT*d[5mC]*d[5mC]*dT*dG*kT*k[5mC]*eT; antisense) [compound 548375]”: 27%. With “548376 (eG*e[5mC]*k[5mC]*dT*dT*dT*dG*dA*d[5mC]*d[5mC]*dT*dT*dT*k[5mC]*kG*e[5mC]; antisense) [compound 548376]”, the “% inhibition” value turned out to be 65%. “548377 (eG*eT*kG*dT*dG*d[5mC]*dT*dG*dA*dG*dG*dT*dT*kT*kG*e[5mC]; antisense) [compound 548377]”: the “% inhibition” value is 80%. Take “548378 (eG*e[5mC]*kA*dA*dG*dA*dT*dG*d[5mC]*dA*dT*dG*d[5mC]*kA*kG*e[5mC]; antisense) [compound 548378]”: the “% inhibition” value is listed as 49%.

Regarding “548379 (eA*eT*k[5mC]*dG*dA*dA*d[5mC]*dT*d[5mC]*dT*dG*d[5mC]*dT*kT*kG*eA; antisense) [compound 548379]”, the “% inhibition” value was 44%.

For “548380 (eG*e[5mC]*k[5mC]*d[5mC]*dA*dG*dT*dT*dT*dT*dG*dG*d[5mC]*kA*kA*e[5mC]; antisense) [compound 548380]”, the “% inhibition” value was 7%. For “548381 (e[5mC]*e[5mC]*k[5mC]*dA*d[5mC]*dT*dA*d[5mC]*d[5mC]*dA*dT*dT*dT*kG*kG*eG; antisense) [compound 548381]”, the “% inhibition” value was 0%.

The series is the same for the next values; noted with them: Table 30; human PKK mRNA, HepaRG cells, 1,000 nM antisense oligonucleotide.
For the substance “548382 (eG*eA*kG*d[5mC]*dA*dA*dA*dT*dA*d[5mC]*dA*dG*dT*k[5mC]*k[5mC]*eA; antisense) [compound 548382]”, the “% inhibition” value is on record as 19%. Still for that read-out and setting: the same measure for “548383 (eG*eT*k[5mC]*dT*d[5mC]*dG*dA*dT*dG*dG*d[5mC]*dA*dA*kG*k[5mC]*eT; antisense) [compound 548383]”: 49%; for “548384 (e[5mC]*eT*k[5mC]*dA*d[5mC]*d[5mC]*dG*dG*dT*dA*d[5mC]*dT*d[5mC]*kT*kG*e[5mC]; antisense) [compound 548384]”: 49%. With “548385 (eT*e[5mC]*k[5mC]*dT*dG*dG*dA*dG*dG*d[5mC]*dA*d[5mC]*d[5mC]*kA*kA*eT; antisense) [compound 548385]”, the “% inhibition” value is given as 0%.
